# Measured values published in ChEMBL document CHEMBL3885861, “Open TG-GATES”.
# Species on record: Rattus norvegicus
# Assay: Open TG-GATES - Regimen: Daily Repeat
# Type: toxicity, organism-based, Sprague-Dawley
# Parameters: regimen Daily Repeat, gender Male, age 6 weeks
# Conditions: in vivo, po, route gavage; for Bas / Eos / Hb / Ht / Lym / MCH / MCHC / MCV / Mono / Neu / Plat / RBC / Ret / WBC: tissue Blood; for KIDNEY_L / KIDNEY_R / KIDNEY_TOTAL: tissue Kidney; for LIVER: tissue Liver; for A/G / ALP / ALT / AST / BUN / CRE / Ca / Cl / DBIL / GLC / IP / K / LDH / Na / PL / RALB / TBIL / TC / TG / TP / gamma-GTP: tissue Plasma
# [1] = 1000 mg/kg, 72 h, dose level Middle, time 3 day
# [2] = 1000 mg/kg, […], dose level Middle, time 7 day
# [3] = 1000 mg/kg, […], dose level Middle, time 14 day
# [4] = 1000 mg/kg, […], dose level Middle, time 28 day
# [5] = 2000 mg/kg, 72 h, dose level High, time 3 day
# [6] = 2000 mg/kg, […], dose level High, time 7 day
# [7] = 2000 mg/kg, […], dose level High, time 14 day
# [8] = 2000 mg/kg, […], dose level High, time 28 day
smiles,measurement,setting,value
CC(N)=O [ACETAMIDE],TERMINAL_BW,[1],241.7 g
same,Bas,[1],0%
same,Eos,[1],0.6%
same,Hb,[1],12.4 g/dL
same,Ht,[1],38.2%
same,Lym,[1],75.6%
same,MCH,[1],20.1 pg
same,MCHC,[1],32.4%
same,MCV,[1],62 fL
same,Mono,[1],3.8%
same,Neu,[1],19%
same,Plat,[1],119 x10_4/uL
same,RBC,[1],617.4 x10_4/ul
same,Ret,[1],7.8%
same,WBC,[1],118.5 x10_2/uL
same,KIDNEY_L,[1],1 g
same,KIDNEY_R,[1],1 g
same,KIDNEY_TOTAL,[1],2 g
same,LIVER,[1],11.3 g
same,A/G,[1],1
same,ALP,[1],1645.6 IU/L
same,ALT,[1],50.4 IU/L
same,AST,[1],84 IU/L
same,BUN,[1],17.2 mg/dL
same,CRE,[1],0.1 mg/dL
same,Ca,[1],10.9 mg/dL
same,Cl,[1],104.4 meq/L
same,DBIL,[1],0 mg/dL
same,GLC,[1],186 mg/dL
same,IP,[1],6.7 mg/dL
same,K,[1],4.4 meq/L
same,LDH,[1],228.8 IU/L
same,Na,[1],140.3 meq/L
same,PL,[1],161.8 mg/dL
same,RALB,[1],2.8 g/dL
same,TBIL,[1],0.004 mg/dL
same,TC,[1],82.2 mg/dL
same,TG,[1],130.3 mg/dL
same,TP,[1],5.6 g/dL
same,gamma-GTP,[1],0.9 IU/L
same,TERMINAL_BW,[2],269.7 g
same,TERMINAL_BW,[3],332.5 g
same,TERMINAL_BW,[4],409 g
same,Bas,[2],0%
same,Eos,[2],0.8%
same,Hb,[2],13 g/dL
same,Ht,[2],39.6%
same,Lym,[2],79.2%
same,MCH,[2],20 pg
same,MCHC,[2],32.8%
same,MCV,[2],60.8 fL
same,Mono,[2],2.4%
same,Neu,[2],17.2%
same,Plat,[2],113.6 x10_4/uL
same,RBC,[2],650.4 x10_4/ul
same,Ret,[2],6.5%
same,WBC,[2],128.6 x10_2/uL
same,Bas,[3],0%
same,Eos,[3],1%
same,Hb,[3],13.3 g/dL
same,Ht,[3],39.8%
same,Lym,[3],81%
same,MCH,[3],19.7 pg
same,MCHC,[3],33.4%
same,MCV,[3],59.2 fL
same,Mono,[3],2.8%
same,Neu,[3],14.2%
same,Plat,[3],118.6 x10_4/uL
same,RBC,[3],672.6 x10_4/ul
same,Ret,[3],4.8%
same,WBC,[3],106.1 x10_2/uL
same,Bas,[4],0%
same,Eos,[4],1%
same,Hb,[4],14.5 g/dL
same,Ht,[4],43.1%
same,Lym,[4],81.6%
same,MCH,[4],18.9 pg
same,MCHC,[4],33.7%
same,MCV,[4],56.2 fL
same,Mono,[4],2.4%
same,Neu,[4],14.4%
same,Plat,[4],93.5 x10_4/uL
same,RBC,[4],767.8 x10_4/ul
same,Ret,[4],2.8%
same,WBC,[4],140.9 x10_2/uL
same,KIDNEY_L,[2],1.2 g
same,KIDNEY_R,[2],1.2 g
same,KIDNEY_TOTAL,[2],2.4 g
same,KIDNEY_L,[3],1.3 g
same,KIDNEY_R,[3],1.4 g
same,KIDNEY_TOTAL,[3],2.7 g
same,KIDNEY_L,[4],1.6 g
same,KIDNEY_R,[4],1.6 g
same,KIDNEY_TOTAL,[4],3.1 g
same,LIVER,[2],11.7 g
same,LIVER,[3],14 g
same,LIVER,[4],15.5 g
same,A/G,[2],1
same,ALP,[2],2048.4 IU/L
same,ALT,[2],47.4 IU/L
same,AST,[2],87.2 IU/L
same,BUN,[2],16 mg/dL
same,CRE,[2],0.1 mg/dL
same,Ca,[2],10.7 mg/dL
same,Cl,[2],104.7 meq/L
same,DBIL,[2],0 mg/dL
same,GLC,[2],186.2 mg/dL
same,IP,[2],6.4 mg/dL
same,K,[2],4.2 meq/L
same,LDH,[2],199 IU/L
same,Na,[2],142.7 meq/L
same,PL,[2],168 mg/dL
same,RALB,[2],2.8 g/dL
same,TBIL,[2],0 mg/dL
same,TC,[2],83.6 mg/dL
same,TG,[2],141.4 mg/dL
same,TP,[2],5.7 g/dL
same,gamma-GTP,[2],0.7 IU/L
same,A/G,[3],0.9
same,ALP,[3],1740 IU/L
same,ALT,[3],43.8 IU/L
same,AST,[3],79.2 IU/L
same,BUN,[3],18.4 mg/dL
same,CRE,[3],0.2 mg/dL
same,Ca,[3],10.5 mg/dL
same,Cl,[3],104.6 meq/L
same,DBIL,[3],0 mg/dL
same,GLC,[3],180.8 mg/dL
same,IP,[3],6.4 mg/dL
same,K,[3],4.3 meq/L
same,LDH,[3],285.4 IU/L
same,Na,[3],142.1 meq/L
same,PL,[3],153.6 mg/dL
same,RALB,[3],2.8 g/dL
same,TBIL,[3],0.002 mg/dL
same,TC,[3],83 mg/dL
same,TG,[3],135.3 mg/dL
same,TP,[3],5.7 g/dL
same,gamma-GTP,[3],0.7 IU/L
same,A/G,[4],0.9
same,ALP,[4],1250.4 IU/L
same,ALT,[4],48.6 IU/L
same,AST,[4],81 IU/L
same,BUN,[4],16.8 mg/dL
same,CRE,[4],0.2 mg/dL
same,Ca,[4],10.3 mg/dL
same,Cl,[4],103.7 meq/L
same,DBIL,[4],0.006 mg/dL
same,GLC,[4],197.2 mg/dL
same,IP,[4],5.2 mg/dL
same,K,[4],4 meq/L
same,LDH,[4],207 IU/L
same,Na,[4],142 meq/L
same,PL,[4],148.2 mg/dL
same,RALB,[4],2.8 g/dL
same,TBIL,[4],0.006 mg/dL
same,TC,[4],75.2 mg/dL
same,TG,[4],122 mg/dL
same,TP,[4],6.1 g/dL
same,gamma-GTP,[4],0.9 IU/L
same,TERMINAL_BW,[5],234.1 g
same,Bas,[5],0%
same,Eos,[5],0.4%
same,Hb,[5],13 g/dL
same,Ht,[5],40%
same,Lym,[5],78%
same,MCH,[5],20.1 pg
same,MCHC,[5],32.6%
same,MCV,[5],61.7 fL
same,Mono,[5],5.2%
same,Neu,[5],14.4%
same,Plat,[5],119.8 x10_4/uL
same,RBC,[5],647.8 x10_4/ul
same,Ret,[5],7.6%
same,WBC,[5],106.6 x10_2/uL
same,KIDNEY_L,[5],1.1 g
same,KIDNEY_R,[5],1.1 g
same,KIDNEY_TOTAL,[5],2.2 g
same,LIVER,[5],10.9 g
same,A/G,[5],1
same,ALP,[5],1650 IU/L
same,ALT,[5],60.6 IU/L
same,AST,[5],95.2 IU/L
same,BUN,[5],18.4 mg/dL
same,CRE,[5],0.1 mg/dL
same,Ca,[5],10.9 mg/dL
same,Cl,[5],103.7 meq/L
same,DBIL,[5],0.006 mg/dL
same,GLC,[5],187.4 mg/dL
same,IP,[5],7.5 mg/dL
same,K,[5],4.2 meq/L
same,LDH,[5],200.2 IU/L
same,Na,[5],140.6 meq/L
same,PL,[5],160.4 mg/dL
same,RALB,[5],2.8 g/dL
same,TBIL,[5],0.014 mg/dL
same,TC,[5],79.2 mg/dL
same,TG,[5],94.6 mg/dL
same,TP,[5],5.5 g/dL
same,gamma-GTP,[5],1 IU/L
same,TERMINAL_BW,[6],255.2 g
same,TERMINAL_BW,[7],310 g
same,TERMINAL_BW,[8],403 g
same,Bas,[6],0%
same,Eos,[6],1%
same,Hb,[6],13.7 g/dL
same,Ht,[6],41.1%
same,Lym,[6],78.2%
same,MCH,[6],19.5 pg
same,MCHC,[6],33.4%
same,MCV,[6],58.4 fL
same,Mono,[6],4%
same,Neu,[6],15.2%
same,Plat,[6],89.2 x10_4/uL
same,RBC,[6],704.6 x10_4/ul
same,Ret,[6],4.4%
same,WBC,[6],108.9 x10_2/uL
same,Bas,[7],0%
same,Eos,[7],0.4%
same,Hb,[7],14 g/dL
same,Ht,[7],41.6%
same,Lym,[7],84.8%
same,MCH,[7],19.6 pg
same,MCHC,[7],33.6%
same,MCV,[7],58.2 fL
same,Mono,[7],2.4%
same,Neu,[7],10.6%
same,Plat,[7],101.3 x10_4/uL
same,RBC,[7],713.8 x10_4/ul
same,Ret,[7],4.1%
same,WBC,[7],156.4 x10_2/uL
same,Bas,[8],0%
same,Eos,[8],0.8%
same,Hb,[8],14.8 g/dL
same,Ht,[8],44%
same,Lym,[8],78.8%
same,MCH,[8],19.4 pg
same,MCHC,[8],33.8%
same,MCV,[8],57.6 fL
same,Mono,[8],3%
same,Neu,[8],15.6%
same,Plat,[8],88.6 x10_4/uL
same,RBC,[8],763.8 x10_4/ul
same,Ret,[8],2.6%
same,WBC,[8],121.1 x10_2/uL
same,KIDNEY_L,[6],1.1 g
same,KIDNEY_R,[6],1.1 g
same,KIDNEY_TOTAL,[6],2.3 g
same,KIDNEY_L,[7],1.3 g
same,KIDNEY_R,[7],1.3 g
same,KIDNEY_TOTAL,[7],2.6 g
same,KIDNEY_L,[8],1.5 g
same,KIDNEY_R,[8],1.6 g
same,KIDNEY_TOTAL,[8],3.1 g
same,LIVER,[6],10.6 g
same,LIVER,[7],11.7 g
same,LIVER,[8],14.4 g
same,A/G,[6],1
same,ALP,[6],2391.2 IU/L
same,ALT,[6],74.6 IU/L
same,AST,[6],114.4 IU/L
same,BUN,[6],18.5 mg/dL
same,CRE,[6],0.2 mg/dL
same,Ca,[6],10.5 mg/dL
same,Cl,[6],103.1 meq/L
same,DBIL,[6],0.02 mg/dL
same,GLC,[6],194.8 mg/dL
same,IP,[6],5.9 mg/dL
same,K,[6],4.2 meq/L
same,LDH,[6],251.2 IU/L
same,Na,[6],141.3 meq/L
same,PL,[6],170.8 mg/dL
same,RALB,[6],2.8 g/dL
same,TBIL,[6],0.028 mg/dL
same,TC,[6],89.8 mg/dL
same,TG,[6],94 mg/dL
same,TP,[6],5.6 g/dL
same,gamma-GTP,[6],1.1 IU/L
same,A/G,[7],0.9
same,ALP,[7],1866.6 IU/L
same,ALT,[7],90.6 IU/L
same,AST,[7],159.8 IU/L
same,BUN,[7],17.1 mg/dL
same,CRE,[7],0.2 mg/dL
same,Ca,[7],10.1 mg/dL
same,Cl,[7],103.9 meq/L
same,DBIL,[7],0.054 mg/dL
same,GLC,[7],187.8 mg/dL
same,IP,[7],6 mg/dL
same,K,[7],4.2 meq/L
same,LDH,[7],232.2 IU/L
same,Na,[7],141.6 meq/L
same,PL,[7],156.2 mg/dL
same,RALB,[7],2.7 g/dL
same,TBIL,[7],0.07 mg/dL
same,TC,[7],87.2 mg/dL
same,TG,[7],77.7 mg/dL
same,TP,[7],5.5 g/dL
same,gamma-GTP,[7],1.6 IU/L
same,A/G,[8],0.9
same,ALP,[8],1427.6 IU/L
same,ALT,[8],55.6 IU/L
same,AST,[8],87.4 IU/L
same,BUN,[8],18 mg/dL
same,CRE,[8],0.2 mg/dL
same,Ca,[8],10.2 mg/dL
same,Cl,[8],104.2 meq/L
same,DBIL,[8],0.01 mg/dL
same,GLC,[8],199 mg/dL
same,IP,[8],5.3 mg/dL
same,K,[8],4.1 meq/L
same,LDH,[8],286.2 IU/L
same,Na,[8],141.9 meq/L
same,PL,[8],136.2 mg/dL
same,RALB,[8],2.8 g/dL
same,TBIL,[8],0.01 mg/dL
same,TC,[8],65.8 mg/dL
same,TG,[8],102.2 mg/dL
same,TP,[8],6 g/dL
same,gamma-GTP,[8],0.8 IU/L
